Usually Ki stands for a measure of affinity in units of concentration, obtained from inhibition or displacement. Higher therefore signals lower affinity. The term IC50 denotes the concentration that inhibits the measured activity by half. Read a high IC50 as weaker potency.

Results on 11 compounds are retold here after ChEMBL document CHEMBL1153885, “Design, synthesis and evaluation of novel uracil acetamide derivatives as potential inhibitors of Plasmodium falciparum dUTP nucleotidohydrolase” (Eur J Med Chem, 2009).

Data set [1] concerns the target T1, dUTP pyrophosphatase (Plasmodium falciparum 3D7, UniProt Q8II92).
T1 sequence (Q8II92 whole entry): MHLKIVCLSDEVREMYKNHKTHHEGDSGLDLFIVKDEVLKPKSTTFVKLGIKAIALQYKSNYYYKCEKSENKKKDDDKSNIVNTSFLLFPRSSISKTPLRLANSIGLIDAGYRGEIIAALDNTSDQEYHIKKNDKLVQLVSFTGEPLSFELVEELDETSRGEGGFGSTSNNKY
Put plainly: Inhibition of Plasmodium falciparum dUTPase.

The target of data set [2] is T2, Deoxyuridine 5'-triphosphate nucleotidohydrolase, mitochondrial (Homo sapiens, UniProt P33316).
T2 sequence (P33316 whole entry): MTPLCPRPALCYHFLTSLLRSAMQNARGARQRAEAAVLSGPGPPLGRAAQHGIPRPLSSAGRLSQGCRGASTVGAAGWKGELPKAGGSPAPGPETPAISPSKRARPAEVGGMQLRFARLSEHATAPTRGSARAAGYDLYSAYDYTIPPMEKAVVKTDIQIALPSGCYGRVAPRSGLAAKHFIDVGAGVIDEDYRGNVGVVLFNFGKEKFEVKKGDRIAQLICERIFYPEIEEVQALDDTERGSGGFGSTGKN
Kind of data set: Inhibition of human dUTPase.

Data set [3] has as its system L6. Put plainly: Cytotoxicity against rat L6 cells. The format is cell-based.
A short description of data set [4]: Selectivity ratio of human dUTPase to Plasmodium falciparum dUTPase.
In data set [5] the test system is Plasmodium falciparum. Put plainly: Antiplasmodial activity against chloroquine-resistant Plasmodium falciparum K1 infected erythrocytes. The data set is classed as functional, organism-based.

`O=C(Cn1ccc(=O)[nH]c1=O)N(CCO)CCNC(c1ccccc1)(c1ccccc1)c1ccccc1`: the Ki in data set [1] and in data set [2] was more than 1000 µM throughout. For the same compound, the Activity in data set [3] was more than 373 µM. In addition, the Selectivity Index in data set [4] is more than 1. This compound also returned an IC50 in data set [5] of more than 83 µM.
With `O=C(Cn1ccc(=O)[nH]c1=O)NCCCNC(c1ccccc1)(c1ccccc1)c1ccccc1`, the Ki in data set [1] was 23.1 µM; in data set [2] it was more than 1000 µM. In addition, the Activity in data set [3] came out at 102.2 µM. Moreover, in data set [4], the Selectivity Index is more than 43. The IC50 in data set [5] is 2.5 µM.
Turning to `O=C(Cn1ccc(=O)[nH]c1=O)NCCCNCCCNC(c1ccccc1)(c1ccccc1)c1ccccc1`, the Ki in data set [1] and in data set [2] was more than 1000 µM each time. In addition, the Activity in data set [3] was found to be 76.7 µM. For the same compound, the Selectivity Index in data set [4] was more than 1. In addition, the half-inhibitory concentration (IC50) in data set [5] was determined as 3.9 µM.
Turning to `O=C(Cn1ccc(=O)[nH]c1=O)NCCNCCNC(c1ccccc1)(c1ccccc1)c1ccccc1`, the Ki in data set [1] and in data set [2] was more than 1000 µM throughout. The same compound displayed an Activity in data set [3] of 52.7 µM. Also, the Selectivity Index in data set [4] was more than 1. The same compound gave an IC50 in data set [5] of 4.5 µM.
Regarding `O=C(Cn1ccc(=O)[nH]c1=O)NCCNC(c1ccccc1)(c1ccccc1)c1ccccc1`, the values for the Ki in data set [1] and in data set [2] were 37.3 µM and more than 1000 µM, respectively. Moreover, the Activity in data set [3] worked out at 53 µM. For the same compound, in data set [4], the Selectivity Index was more than 26. The midpoint of inhibition in data set [5], the IC50, lay at 4.2 µM.
In data set [3], `O=c1ccn(CCCCCCNC(c2ccccc2)(c2ccccc2)c2ccccc2)c(=O)[nH]1` had an Activity of 40 µM. Moreover, the Selectivity Index in data set [4] is more than 555.
Consider `CC(C)(C)[Si](NCCCCCCn1ccc(=O)[nH]c1=O)(c1ccccc1)c1ccccc1`, for which the Ki in data set [1] is 8.5 µM; in data set [2] it was more than 1000 µM. This compound registered an Activity in data set [3] of 18 µM. Further, the Selectivity Index in data set [4] was more than 117. For the same compound, in data set [5], the IC50 was 3.9 µM.
Take `O=c1ccn(CCCCCNC(c2ccccc2)(c2ccccc2)c2ccccc2)c(=O)[nH]1`: the Activity in data set [3] came out at 39 µM. Besides, the Selectivity Index in data set [4] was more than 232.
Turning to `CC(C)(C)[Si](OCCCCNC(=O)Cn1ccc(=O)[nH]c1=O)(c1ccccc1)c1ccccc1`, the Ki in data set [1] and in data set [2] was more than 1000 µM throughout. For the same compound, the Activity in data set [3] was found to be 33.4 µM. In data set [4], the Selectivity Index is more than 1. This compound had an IC50 in data set [5] of 3.7 µM.
Turning to `CC(C)(C)[Si](OCCCNC(=O)Cn1ccc(=O)[nH]c1=O)(c1ccccc1)c1ccccc1`, the Ki in data set [1] and in data set [2] was more than 1000 µM each time. The Activity in data set [3] is 88.9 µM. In addition, in data set [4], the Selectivity Index was more than 1. Further, in data set [5], the midpoint of inhibition, the IC50, lay at 4.6 µM.
Take `O=C(Cn1ccc(=O)[nH]c1=O)NCCCCNC(c1ccccc1)(c1ccccc1)c1ccccc1`: the Ki in data set [1] and in data set [2] was more than 1000 µM throughout. The same compound showed an Activity in data set [3] of 42.7 µM. Besides, in data set [4], the Selectivity Index is more than 1. In addition, the IC50 in data set [5] was 2.9 µM.
